Data published in ChEMBL document CHEMBL5346863, “Discovery of substituted benzyloxy-benzylamine inhibitors of acetyltransferase Eis and their anti-mycobacterial activity” (Eur J Med Chem, 2022).
≈ marks a conversion by molar mass, not a printed value. Calls of active or inactive are those of the source. The calls are words filed in the database; no cut-off is given here.

Legend:
J774.1 [1] = experiment: Cytotoxicity against mouse J774.1 cells upto 12.5 uM incubated for 24 hrs by resazurin dye based cell viability assay; assay type: toxicity; conditions: j774.1, 24 h
N-acetyltransferase Eis [2] = target: T1, N-acetyltransferase Eis (Mycobacterium tuberculosis (strain ATCC 25618 / H37Rv), UniProt P9WFK7); experiment: Inhibition of wild-type Mycobacterium tuberculosis Eis expressed in Escherichia coli BL21(DE3) cells incubated for 5 mins by Ellman's method
T1 sequence (P9WFK7 whole entry): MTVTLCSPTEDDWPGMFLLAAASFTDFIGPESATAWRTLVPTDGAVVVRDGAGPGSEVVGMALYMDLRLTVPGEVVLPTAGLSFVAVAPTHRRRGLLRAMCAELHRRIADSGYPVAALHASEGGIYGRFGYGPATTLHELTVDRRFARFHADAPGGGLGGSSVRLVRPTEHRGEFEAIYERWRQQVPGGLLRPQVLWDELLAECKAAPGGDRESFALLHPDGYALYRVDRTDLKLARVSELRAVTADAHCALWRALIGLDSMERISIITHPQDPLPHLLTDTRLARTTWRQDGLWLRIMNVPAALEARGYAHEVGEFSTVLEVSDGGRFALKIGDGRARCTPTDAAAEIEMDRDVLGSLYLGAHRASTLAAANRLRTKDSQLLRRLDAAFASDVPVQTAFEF

[3] = test system: Mycobacterium tuberculosis; experiment: Antibacterial activity against Mycobacterium tuberculosis H37Ra assessed as bacterial growth inhibition incubated 2 to 3 weeks by resazurin dye based assay; assay type: functional; conditions: time 2-3 weeks
[4] = test system: Mycobacterium tuberculosis; experiment: Antibacterial activity against Mycobacterium tuberculosis H37Rv assessed as MIC of kanamycin A at 106 uM incubated for 24 hrs followed by kanamycin A addition measured after 6 days by alamarblue dye based assay; assay type: functional, organism-based; conditions: time 7.0 day
[5] = test system: Mycobacterium tuberculosis; experiment: Antibacterial activity against Mycobacterium tuberculosis H37Rv assessed as MIC of kanamycin A at 100 uM incubated for 24 hrs followed by kanamycin A addition measured after 6 days by alamarblue dye based assay; assay type: functional; conditions: time 7.0 day
A549 [6] = experiment: Cytotoxicity against human A549 cells at 200 uM incubated for 24 hrs by resazurin dye based cell viability assay; assay type: toxicity; conditions: a549, 24 h
J774.1 [7] = experiment: Cytotoxicity against mouse J774.1 cells at 200 uM incubated for 24 hrs by resazurin dye based cell viability assay; assay type: toxicity; conditions: j774.1, 24 h
HEK293 [8] = experiment: Cytotoxicity against HEK293 cells at 200 uM incubated for 24 hrs by resazurin dye based cell viability assay; assay type: toxicity; conditions: human, hek293, 24 h
Mycobacterium avium = experiment: Antibacterial activity against Mycobacterium avium ATCC 25291 assessed as bacterial growth inhibition incubated for 2 to 3 weeks by resazurin dye based assay; assay type: functional; conditions: time 2-3 weeks
HEK293 [9] = experiment: Cytotoxicity against HEK293 cells upto 12.5 uM incubated for 24 hrs by resazurin dye based cell viability assay; assay type: toxicity; conditions: human, hek293, 24 h
[10] = test system: Mycobacterium intracellulare; experiment: Antibacterial activity against Mycobacterium intracellulare ATCC 13950 assessed as bacterial growth inhibition incubated for 2 to 3 weeks by resazurin dye based assay; assay type: functional; conditions: time 2-3 weeks
[11] = test system: Mycobacteroides abscessus; experiment: Antibacterial activity against Mycobacterium abscessus ATCC 19977 assessed as bacterial growth inhibition incubated for 2 to 3 weeks by resazurin dye based assay; assay type: functional; conditions: time 2-3 weeks
[12] = test system: Mycobacterium tuberculosis; experiment: Antibacterial activity against Mycobacterium tuberculosis K204 assessed as MIC of kanamycin A at 106 uM incubated for 24 hrs followed by kanamycin A addition measured after 6 days by alamarblue dye based assay; assay type: functional, organism-based; conditions: time 7.0 day
[13] = test system: Mycobacterium tuberculosis; experiment: Antibacterial activity against Mycobacterium tuberculosis mc2 6230 assessed as bacterial growth inhibition incubated 2 to 3 weeks by resazurin dye based assay; assay type: functional; conditions: time 2-3 weeks
A549 [14] = experiment: Cytotoxicity against human A549 cells upto 12.5 uM incubated for 24 hrs by resazurin dye based cell viability assay; assay type: toxicity; conditions: a549, 24 h
[15] = test system: Mycobacterium tuberculosis; experiment: Antibacterial activity against Mycobacterium tuberculosis H37Rv assessed as MIC of kanamycin A at 7.9 uM incubated for 24 hrs followed by kanamycin A addition measured after 6 days by alamarblue dye based assay; assay type: functional; conditions: 168 h, time 7 day
[16] = test system: Mycobacterium parascrofulaceum; experiment: Antibacterial activity against Mycobacterium parascrofulaceum ATCC BAA-614 assessed as bacterial growth inhibition incubated for 2 to 3 weeks by resazurin dye based assay; assay type: functional; conditions: time 2-3 weeks
[17] = test system: Mycobacterium tuberculosis; experiment: Antibacterial activity against Mycobacterium tuberculosis H37Rv assessed as MIC of kanamycin A at 6.3 uM incubated for 24 hrs followed by kanamycin A addition measured after 6 days by alamarblue dye based assay; assay type: functional; conditions: 168 h, time 7 day
[18] = test system: Mycolicibacterium smegmatis; experiment: Antibacterial activity against Mycobacterium smegmatis mc2 122 assessed as bacterial growth inhibition incubated for 2 to 3 weeks by resazurin dye based assay; assay type: functional; conditions: time 2-3 weeks
N-acetyltransferase Eis [19] = target: T1, N-acetyltransferase Eis; experiment: Binding affinity to wild-type Mycobacterium tuberculosis Eis expressed in Escherichia coli BL21(DE3) cells assessed as inhibition constant incubated for 5 mins by Ellman's method based Michaelis-Menten analysis
A549 [20] = experiment: Cytotoxicity against human A549 cells >=50 uM incubated for 24 hrs by resazurin dye based cell viability assay; assay type: toxicity; conditions: a549, 24 h
[21] = test system: Mycobacterium tuberculosis; experiment: Antibacterial activity against Mycobacterium tuberculosis mc2 6230 assessed as MIC of kanamycin A at 25 uM incubated for 24 hrs followed by kanamycin A addition measured after 6 days by alamarblue dye based assay; assay type: functional; conditions: mc2 6230, 168 h, time 7 day
[22] = test system: Mycobacterium tuberculosis; experiment: Antibacterial activity against Mycobacterium tuberculosis mc2 6230 K204 assessed as MIC of kanamycin A at 25 uM incubated for 24 hrs followed by kanamycin A addition measured after 6 days by alamarblue dye based assay; assay type: functional; conditions: Mycobacterium tuberculosis, mc2 6230 K204, 168 h, time 7 day, read-out: MIC
[23] = test system: Mycobacterium tuberculosis; experiment: Antibacterial activity against Mycobacterium tuberculosis H37Rv assessed as MIC of kanamycin A at 97.9 uM incubated for 24 hrs followed by kanamycin A addition measured after 6 days by alamarblue dye based assay; assay type: functional, organism-based; conditions: time 7.0 day
[24] = test system: Mycobacterium tuberculosis; experiment: Antibacterial activity against Mycobacterium tuberculosis K204 assessed as MIC of kanamycin A at 97.9 uM incubated for 24 hrs followed by kanamycin A addition measured after 6 days by alamarblue dye based assay; assay type: functional, organism-based; conditions: time 7.0 day
[25] = test system: Mycobacterium tuberculosis; experiment: Antibacterial activity against Mycobacterium tuberculosis H37Rv assessed as MIC of kanamycin A at 43.8 uM incubated for 24 hrs followed by kanamycin A addition measured after 6 days by alamarblue dye based assay; assay type: functional; conditions: 168 h, time 7 day
[26] = test system: Mycobacterium tuberculosis; experiment: Antibacterial activity against Mycobacterium tuberculosis H37Rv assessed as MIC of kanamycin A at 8.2 uM incubated for 24 hrs followed by kanamycin A addition measured after 6 days by alamarblue dye based assay; assay type: functional; conditions: 168 h, time 7 day
[27] = test system: Mycobacterium tuberculosis; experiment: Antibacterial activity against Mycobacterium tuberculosis mc2 6230 K204 assessed as MIC of kanamycin A at 50 uM incubated for 24 hrs followed by kanamycin A addition measured after 6 days by alamarblue dye based assay; assay type: functional; conditions: mc2 6230 K204, 168 h, time 7 day
[28] = test system: Mycobacterium tuberculosis; experiment: Antibacterial activity against Mycobacterium tuberculosis mc2 6230 assessed as MIC of kanamycin A at 50 uM incubated for 24 hrs followed by kanamycin A addition measured after 6 days by alamarblue dye based assay; assay type: functional; conditions: mc2 6230, 168 h, time 7 day

| Compound | IC50 (N-acetyltransferase Eis [2]) [µM] | MIC [3] [µM] | Activity [5] | MIC (Mycobacterium avium) [µM] | MIC [10] [µM] | MIC [11] [µM] | MIC [13] [µM] | MIC [18] [µM] | also measured |
| --- | --- | --- | --- | --- | --- | --- | --- | --- | --- |
| Clc1ccc(COc2ccc(CNCc3ccncc3)cc2)cc1 | 2 | 3.9 (≈ 1.32 µg/mL) | Active | > 62.5 | 2 (≈ 0.678 µg/mL) | 62.5 (≈ 21.2 µg/mL) | 25 (≈ 8.47 µg/mL) | – | Activity (J774.1 [1]): Non-Toxic; Activity [4]: Active; Activity (A549 [6]): Toxic; Activity (J774.1 [7]): Toxic; Activity (HEK293 [8]): Toxic; Activity (HEK293 [9]): Non-Toxic; Activity [12]: Active; Activity (A549 [14]): Non-Toxic |
| Clc1cccc(COc2ccccc2CNCc2cccnc2)c1 | 4.2 | – | – | > 62.5 | > 62.5 | > 62.5 | 100 (≈ 33.9 µg/mL) | – | MIC [15]: 7.9 µg/mL; MIC [16]: > 62.5 µM |
| Clc1ccc(COc2cccc(CNCc3cccnc3)c2)cc1 | 2.5 | 15.6 (≈ 5.29 µg/mL) | – | > 62.5 | 31.3 (≈ 10.6 µg/mL) | – | 50 (≈ 16.9 µg/mL) | 31.3 (≈ 10.6 µg/mL) | MIC [17]: 2.5 µg/mL |
| Clc1ccc(COc2ccccc2CNCc2cccnc2)cc1 | 2 | 62.5 (≈ 21.2 µg/mL) | Active | > 62.5 | – | > 62.5 | 50 (≈ 16.9 µg/mL) | 62.5 (≈ 21.2 µg/mL) | Activity (J774.1 [1]): Non-Toxic; Ki (N-acetyltransferase Eis [19]): 1.16 µM; Activity (A549 [20]): Toxic; Activity (HEK293 [9]): Non-Toxic; MIC [21]: < 1.25 µM; MIC [22]: > 10 µM; Activity [23]: Active; Activity (A549 [14]): Non-Toxic; Activity [24]: Active |
| Fc1ccc(COc2ccccc2CNCc2ccncc2)cc1 | ~100 | > 250 | – | – | – | – | 50 (≈ 16.1 µg/mL) | – | MIC [25]: 2.5 µg/mL |
| Fc1ccc(COc2ccccc2CNCc2cccnc2)cc1 | 10 | 125 (≈ 40.3 µg/mL) | – | > 62.5 | > 62.5 | > 62.5 | > 100 | > 62.5 | MIC [26]: 2.5 µg/mL; MIC [16]: > 62.5 µM |
| Brc1ccc(COc2ccccc2CNCc2ccccc2)cc1 | 1.3 | 31.3 (≈ 12 µg/mL) | Active | > 62.5 | 31.3 (≈ 12 µg/mL) | – | 100 (≈ 38.2 µg/mL) | – | MIC [27]: > 10 µM; Ki (N-acetyltransferase Eis [19]): 5.26 µM; MIC [28]: < 1.25 µM |
